Assays:
[1] = test system: ACL, adiponectin, C/EBPα, Glut4, PPARγ; test: Adipogenic marker protein expression, Western blotting; format: cell-based, mouse; details: 7 days in DM + compound
Procedure: Post-confluent 3T3-L1 preadipocytes were differentiated for 7 days in the presence of differentiating media (DM), or DM+ test compounds (LR23 (5 μM, 25 μM, or 50 μM), LR59 (5 μM, 25 μM, or 50 μM), LR-90 (25 μM), ROS (50 μM), TSA (0.5 μM) or apicidin (1 μM)). Protein levels were analyzed by Western blotting and the relative expression of each protein was quantified using a densitometer and calculated according to the reference bands of β-actin (FIG. 8). Numbers above each blot represent fold increase over control (undifferentiated preadipocytes).
3T3-L1 preadipocytes cells were treated with differentiating media (DM) with COH-SR4 (1 μM, 3 μM, or 5 μM) or without for 7 days. […] As used in FIG. 9C, U=undifferentiated, D=differentiated with cocktail media.

HIF-1α = HIF-1α protein expression in U251, immunoblotting; format: cell-based; details: U251, 1-10 μM
Procedure: U251 cells were incubated with various concentrations of COH-SR4 (1˜10 μM). Whole-cell lysates were analyzed by immunoblotting with antibodies against HIF-1α. GAPDH was used as a loading control.

human VEGF promoter = test: VEGF promoter luciferase reporter in U251; format: cell-based; details: U251, 1 or 3 μM, 24 hours
Procedure: U251 cells expressing luciferase reporter containing human VEGF promoter were incubated with various concentrations of COH-SR4 (0, 1, or 3 μM) for 24 hours. Luciferase activity was determined and normalized to the cell number for each treatment. Data were represented as a ratio to vehicle control that was treated by DMSO.

A2058 p^0 cells = test: Oxygen consumption rate in mitochondrial DNA-depleted cells; format: cell-based, human; details: compared with wild-type A2058; data not shown
Procedure: Oxygen consumption rate (OCR), a measure of OxPhos, and extracellular acidification rate (ECAR), a measure of lactate production by glycolysis, were measured using a Seahorse Xf^e96 Flux Analyzers (Seahorse Biosciences, North Billerica, Mass.). Cells were seeded in DMEM media in Seahorse 96-well tissue culture plates at a density of 5×10^3 cells/well and allowed to adhere for 24 h. Prior to the assay, the media was changed to unbuffered DMEM containing 25 mM glucose, 1 mM pyruvate and 1 mM glutamine, with 0.2% fatty acid/endotoxin-free BSA (w/v) (pH 7.4) and the cells were equilibrated for 30 min at 37° C. Test compounds were injected during the assay and OCR and ECAR were measured using 2-3 min measurement periods. Similar sets of experiments were performed in the presence of the mitochondria recoupler agent 6-KCH or the mitochondrial permeability transition (MPT) pore blocker CSA, where each compound was injected into the assay media prior to COH-SR4 or FCCP injection. […] OCR was measured throughout the different injections of the stressors and test compounds (indicated by arrows in the figures).
To verify that COH-SR4 acts directly on mitochondrial respiration, OCR in mitochondrial DNA-depleted (p^0) A2058 cells was measured, as well as freshly isolated mouse liver mitochondria and treated with either COH-SR4 or FCCP.

H1618 cells = test: MTT assay, H1618; format: cell-based; details: Homo sapiens, 48 h
Procedure: Cell density measurements were performed using a hemocytometer to count reproductive cells resistant to staining with trypan blue. Approximately 20,000 cells were plated into each well of 96-well flat-bottomed micro-titer plates. After 12 h or 24 h incubation at 37° C., medium containing either COH-SR4 (ranging 0-200 μM) or elesclomol (ranging 0-20 μM) were added to the cells. After 24 h, 48 h or 96 h incubation, 20 μL of 5 mg/mL MTT were introduced to each well and incubated for 2 h. The plates were centrifuged and medium was decanted. Cells were subsequently dissolved in 100 μl DMSO with gentle shaking for 2 h at room temperature, followed by measurement of OD570 (91).
The effect of COH-SR4 was first examined in a NCI panel of cancer cell lines, the results of which indicated good activity of COH-SR4 towards lung cancer (FIG. 78A). […] Values are presented as mean±SD from two separate determinations with eight replicates each (n=16) (FIG. 78B). […] Standard colony-forming assay was performed and the colonies were counted using Innotech Alpha Imager HP. […] TUNEL assay was performed using Promega fluorescence detection kit and examined using Zeiss LSM 510 META laser-scanning fluorescence microscope with filters 520 and 620 nm. […]

H1618 = test: Colony formation assay, H1618; format: cell-based, human; details: 1.5 μM
Procedure: Cell survival was evaluated using a standard colony-forming assay. In total, 1×10^5 cells/mL were incubated with COH-SR4 (1.5 μM or 5 μM) or elesclomol (5 μM) for 24 h, and aliquots of 50 or 100 μL were added to 60 mm size petri dishes, containing 4 mL culture medium. After 7 or 10 days, adherent colonies were fixed, stained with 0.5% methylene blue for 30 min and colonies were counted using the Innotech Alpha Imager HP (91).
The effect of COH-SR4 was first examined in a NCI panel of cancer cell lines, the results of which indicated good activity of COH-SR4 towards lung cancer (FIG. 78A). […] Values are presented as mean±SD from two separate determinations with eight replicates each (n=16) (FIG. 78B). The COH-SR4 treatment exerted a significant inhibitory effect on the survival of lung cancer cells [IC50: H1417 cells-1.2±0.2 μM, H1618 cells-1.5±0.2 μM, H358 cells-2.1±0.2 μM and H520 cells-2.4±0.3 μM]. […] Following initial screening for the anticancer activity of COH-SR4, the effect of COH-SR4 on clonogenic potential was studied. Standard colony-forming assay was performed and the colonies were counted using Innotech Alpha Imager HP. […] The effect of COH-SR4 on induction of apoptosis was further investigated. […] TUNEL assay was performed using Promega fluorescence detection kit and examined using Zeiss LSM 510 META laser-scanning fluorescence microscope with filters 520 and 620 nm. […]

H358 and H520 cells = test: COH-SR4 cytotoxicity after siRNA knock-down of AMPK, XTT; format: cell-based, human
Procedure: The effects of COH-SR4 on cell viability were assessed in quadruplicate samples using the 2,3-bis (2-methoxy-4-nitro-5-sulfophenly)-5-[(phenylamino) carbonyl]-2H-tetrazolium hydroxide (XTT) assay. Briefly, 20,000 cells were seeded and incubated in 96-well, flat-bottomed plates in 10% FBS-supplemented culture medium 24 h before drug treatment. After 24 h incubation at 37° C., cells were then exposed to the indicated concentrations of drug at 37° C. in 5% CO2 for 48 h. The medium was removed and replaced with 100 μL fresh medium containing 50 μL of the activated-XTT solution to each well, and the cells were further cultured in the CO2 incubator at 37° C. for 4 h. Absorbance was determined on a plate reader at 475 nm.
AMPK was knocked down by siRNA and assessed the impact on COH-SR4-induced cytotoxicity. […] Thus, the in-vitro analyses of critical signaling proteins of cell proliferation further supported the anti-cancer effects of COH-SR4 in lung cancer cells.

## O=C(Nc1cc(Cl)cc(Cl)c1)Nc1cc(Cl)cc(Cl)c1 [COH-SR4, 1,3-bis(3,5-dichlorophenyl) urea]
[1]
  expression of adipogenic markers: decreased expression of key transcription factors (C/EBPα, PPARγ) and proteins (ACL, adiponectin, FAS)
HIF-1α
  HIF-1α protein expression: inhibited HIF-1α protein expression
Human VEGF promoter
  luciferase expression (VEGF promoter): inhibited luciferase expression of VEGF protein
A2058 p^0 cells
  OCR in mitochondrial DNA-depleted cells: failed to increase OCR
H1618 cells
  IC50: 1.5 ± 0.2 µM
H1618
  colony formation: 48±9%
H358 and H520 cells
  cytotoxicity of COH-SR4 after knock-down of AMPK: significant reversal in the cytotoxicity

Source: patent US9808434B2, “Compound for treating cancer and diabetes” (CITY OF HOPE, priority 2011, dated 2017)
